Experiments:
Mycocyclosin synthase [1] = target: T1, Mycocyclosin synthase (Mycobacterium tuberculosis, UniProt P9WPP7); assay: Binding affinity to Mycobacterium tuberculosis recombinant His6-tagged CYP121 expressed in Escherichia coli C41(DE3) cells assessed as change in wavelength of heme soret band at 1 mM by UV-visible spectrophotometric method; conditions: 1000 µM
T1 sequence (P9WPP7 whole entry): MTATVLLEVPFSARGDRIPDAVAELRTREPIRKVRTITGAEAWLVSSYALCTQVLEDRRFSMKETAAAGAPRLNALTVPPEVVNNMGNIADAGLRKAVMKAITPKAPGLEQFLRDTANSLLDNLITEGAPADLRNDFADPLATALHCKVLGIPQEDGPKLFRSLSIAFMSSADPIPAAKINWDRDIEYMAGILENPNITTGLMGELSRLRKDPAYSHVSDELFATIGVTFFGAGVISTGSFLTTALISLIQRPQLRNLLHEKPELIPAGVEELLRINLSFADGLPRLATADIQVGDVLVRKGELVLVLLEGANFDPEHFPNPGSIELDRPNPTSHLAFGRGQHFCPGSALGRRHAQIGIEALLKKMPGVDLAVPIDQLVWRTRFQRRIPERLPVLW

[2] = Solubility of compound in 50 mM Tris-Hcl/1mM EDTA at 1 mM at pH 7.5; type: physicochemical; conditions: buffer, pH 7.5, 1000 µM
Mycocyclosin synthase [3] = target: T1, Mycocyclosin synthase; assay: Binding affinity to Mycobacterium tuberculosis recombinant His6-tagged CYP121 expressed in Escherichia coli C41(DE3) cells by isothermal titration calorimetry

SMILES	Activity (Mycocyclosin synthase [1])	solubility [2]	Kd (Mycocyclosin synthase [3]) [µM]
CCOC(=O)/C=C1/C(=O)Nc2ccccc21	0 nm	soluble	–
CCOC(=O)/C=C1/C(=O)Nc2ccc(F)cc21	0 nm	soluble	–
CCOC(=O)/C=C1/C(=O)Nc2ccc(Cl)cc21	ND(Insoluble)	Insoluble	–
CCOC(=O)[C@@H]1[C@@H]2C=C[C@@H](C2)[C@@]12C(=O)Sc1ccccc12	0 nm	soluble	–
N#CCC1C(=O)Nc2ccccc21 (configuration not stated)	0 nm	soluble	–
CN1C(=O)C(CC#N)c2ccccc21 (configuration not stated)	0 nm	soluble	–
CCOC(=O)[C@H]1[C@@H]2C=C[C@@H](C2)[C@]12C(=O)N(C(C)=O)c1ccccc12	0 nm	soluble	–
N#C/C=C1/C(=O)Nc2ccc(OC(F)(F)F)cc21	0 nm	soluble	–
CCOC(=O)CC1C(=O)Nc2ccc(OC(F)(F)F)cc21 (configuration not stated)	0 nm	soluble	–
CCOC(=O)[C@H]1[C@@H]2C=C[C@@H](C2)[C@]12C(=O)Sc1ccccc12	-1 nm	soluble	–
CCOC(=O)[C@H]1[C@@H]2C=C[C@@H](C2)[C@]12C(=O)Nc1ccc(OC(F)(F)F)cc12	0 nm	soluble	–
N#C/C=C1/C(=O)Nc2ccccc21	0 nm	soluble	–
CCOC(=O)[C@@H]1[C@@H]2C=C[C@@H](C2)[C@@]12C(=O)Oc1ccccc12	0 nm	soluble	–
CCOC(=O)[C@@H]1[C@@H]2C=C[C@@H](C2)[C@@]12C(=O)Nc1ccc(OC(F)(F)F)cc12	0 nm	soluble	–
Nc1ccc2nccc(-n3cncn3)c2c1	3 nm	–	28
N#CCC1C(=O)Nc2ccc(OC(F)(F)F)cc21 (configuration not stated)	-2 nm	soluble	–
CCOC(=O)[C@@H]1[C@@H]2C=C[C@@H](C2)[C@@]12C(=O)N(C)c1ccccc12	0 nm	soluble	–
CCOC(=O)/C=C1/C(=O)Sc2ccccc21	0 nm	soluble	–
CCOC(=O)CC1C(=O)Oc2ccccc21 (configuration not stated)	0 nm	soluble	–
CCOC(=O)[C@@H]1[C@@H]2C=C[C@@H](C2)[C@@]12C(=O)Nc1ccc(F)cc12	0 nm	soluble	–
CCOC(=O)/C=C1/C(=O)N(C)c2ccccc21	0 nm	soluble	–

SMILES	Activity (Mycocyclosin synthase [1])	solubility [2]	Kd (Mycocyclosin synthase [3]) [µM]
N#C[C@@H]1[C@@H]2C=C[C@@H](C2)[C@@]12C(=O)Nc1ccccc12	0 nm	soluble	–
CCOC(=O)[C@H]1[C@@H]2C=C[C@@H](C2)[C@]12C(=O)Nc1ccc(Cl)cc12	-1 nm	soluble	–
CCOC(=O)/C=C1/C(=O)Nc2ccc([N+](=O)[O-])cc21	ND(Insoluble)	Insoluble	–
CCOC(=O)[C@H]1[C@@H]2C=C[C@@H](C2)[C@]12C(=O)Nc1ccccc12	0 nm	soluble	–
CCOC(=O)[C@H]1[C@@H]2C=C[C@@H](C2)[C@]12C(=O)N(C)c1ccccc12	-2 nm	soluble	–
CCOC(=O)/C=C1/C(=O)Oc2ccccc21	-1 nm	soluble	–
CCOC(=O)[C@@H]1[C@@H]2C=C[C@@H](C2)[C@@]12C(=O)N(C(C)=O)c1ccccc12	0 nm	soluble	–
CCOC(=O)[C@@H]1[C@@H]2C=C[C@@H](C2)[C@@]12C(=O)Nc1ccc(Cl)cc12	0 nm	soluble	–
CCOC(=O)/C=C1/C(=O)Nc2ccc(OC(F)(F)F)cc21	0 nm	soluble	–
CCOC(=O)[C@H]1[C@@H]2C=C[C@@H](C2)[C@]12C(=O)Nc1ccc(F)cc12	0 nm	soluble	–
CN1C(=O)/C(=C/C#N)c2ccccc21	0 nm	soluble	–
N#C[C@H]1[C@@H]2C=C[C@@H](C2)[C@]12C(=O)Nc1ccccc12	0 nm	soluble	–
CCOC(=O)CC1C(=O)Nc2ccc(F)cc21 (configuration not stated)	0 nm	soluble	–
CCOC(=O)[C@H]1[C@@H]2C=C[C@@H](C2)[C@]12C(=O)Oc1ccccc12	-1 nm	soluble	–
CCOC(=O)CC1C(=O)Nc2ccc(Cl)cc21 (configuration not stated)	0 nm	soluble	–
CCOC(=O)/C=C1/C(=O)N(C(C)=O)c2ccccc21	0 nm	soluble	–
CCOC(=O)[C@@H]1[C@@H]2C=C[C@@H](C2)[C@@]12C(=O)Nc1ccccc12	-1 nm	soluble	–
N#CC1[C@@H]2C=C[C@@H](C2)C12C(=O)Nc1ccccc12 (mixture of isomers)	0 nm	soluble	–
N#CC1[C@@H]2C=C[C@@H](C2)C12C(=O)Nc1ccc(OC(F)(F)F)cc12 (mixture of isomers)	0 nm	soluble	–
CCOC(=O)C1[C@@H]2C=C[C@@H](C2)C12C(=O)Nc1ccc([N+](=O)[O-])cc12 (mixture of isomers)	ND(Insoluble)	Insoluble	–
